Laboratory results as given in patent publication US8715927B2, “Inhibition of DNA polymerases to augment chemotherapeutic and antimicrobial agents” (priority 2008, dated 2014).

Assays:
avidin = avidin (Gallus gallus, UniProt P02701); conditions: non-covalent interaction; cited from earlier work
COS-7 cells = assay: Mutagenesis assay: site-specifically modified pMS2 shuttle vector replicated in COS-7 cells; type: cell-based; conditions: for Deletions / Single base substitutions G to A / Single base substitutions G to C / Single base substitutions G to T: number among colonies scored, pMS2 vector, COS-7 cells; for Frequency of mutations: pMS2 vector replicated in COS-7 cells
Protocol: Mutagenesis assays were performed using a previously developed pMS2 shuttle vector/COS-7 system (Moriya, Proc. Natl. Acad. Sci. U.S.A. 90:1122-1126, 1993). In its single-stranded form, the pMS2 vector contains a hairpin loop with an internal EcoRV restriction site. Incorporation of control non-damaged oligodeoxynucleotides into this site was accomplished in the presence of a scaffold DNA according to a published method (Kanuri et al., J. Biol. Chem. 277:18257-18265, 2002). To create a single-stranded pMS2 containing site-specific interstrand crosslink, the procedure was modified as described below.
Oligodeoxynucleotides containing a model acrolein-derived site-specific interstrand crosslink (FIG. 1A and FIG. 1B) were designed in such a way that peripheral regions of the longer strands (36-mer) were complementary to the vector sequences immediately adjacent to the EcoRV site. A circular single-stranded pMS2 vector (approximately 15 pmol) was digested with 40 units of EcoRV (New England BioLabs) for 3 hours at 37° C. to generate a linear DNA. 5′-phosphorylated crosslinked inserts (60 pmol) were added to the linear single-stranded pMS2 (15 pmol), and ligated using 60 units of T4 DNA ligase (New England BioLabs) for 48 hours at 4° C. To obtain double-stranded pMS2 vectors, the 36-mer strand of the crosslink or the scaffold oligodeoxynucleotide in control DNA was extended using 5 units of T4 DNA polymerase (New England BioLabs) and 1 mM dNTPs at 37° C. for 1 hour. A newly-synthesized strand was concomitantly sealed using 5 units of T4 DNA ligase (New England BioLabs). The creation of double-stranded pMS2 was verified by PstI (New England BioLabs) digestion.
Transfection of pMS2 vector into COS-7 cells, isolation of progeny DNA, selection of individual clones by E. coli transformation, and differential hybridization analyses were performed as previously described (Moriya, Proc. Natl. Acad. Sci. U.S.A. 90:1122-1126, 1993; Kanuri et al., J. Biol. Chem. 277:18257-18265, 2002).
Previous studies have established that in human cells, crotonaldehyde-mediated N^2-N^2-guanine ICLs were repaired mostly (>94%) in an error-free manner (Liu et al., Biochemistry 45:12898-12905, 2006). Since acrolein-mediated ICLs are structurally similar to crotonaldehyde-mediated ICLs, it is possible that model acrolein-derived N^2-N^2-guanine ICL (FIG. 1A) would not be highly mutagenic when plasmid vectors containing this lesion were replicated in mammalian cells. In order to test this, oligodeoxynucleotides were constructed to contain a site-specific ICL in either CpG or GpC sequence contexts (FIG. 1B) and engineered into a double-stranded DNA shuttle vector (pMS2). The vector was replicated in COS-7 cells, and progeny DNAs were analyzed to determine frequency and types of mutations. In both the CpG and GpC sequence contexts, the mutation frequencies were very low, 3.0% and 3.2%, respectively (Table 2).

E. coli DNA pol II = target: T1, E. coli DNA pol II (Escherichia coli, UniProt P21189); assay: Primer extension assay by E. coli DNA pol II; type: biochemical; conditions: pol II 0.3 nM, time course
T1 construct: made in house
T1 sequence (P21189 whole entry): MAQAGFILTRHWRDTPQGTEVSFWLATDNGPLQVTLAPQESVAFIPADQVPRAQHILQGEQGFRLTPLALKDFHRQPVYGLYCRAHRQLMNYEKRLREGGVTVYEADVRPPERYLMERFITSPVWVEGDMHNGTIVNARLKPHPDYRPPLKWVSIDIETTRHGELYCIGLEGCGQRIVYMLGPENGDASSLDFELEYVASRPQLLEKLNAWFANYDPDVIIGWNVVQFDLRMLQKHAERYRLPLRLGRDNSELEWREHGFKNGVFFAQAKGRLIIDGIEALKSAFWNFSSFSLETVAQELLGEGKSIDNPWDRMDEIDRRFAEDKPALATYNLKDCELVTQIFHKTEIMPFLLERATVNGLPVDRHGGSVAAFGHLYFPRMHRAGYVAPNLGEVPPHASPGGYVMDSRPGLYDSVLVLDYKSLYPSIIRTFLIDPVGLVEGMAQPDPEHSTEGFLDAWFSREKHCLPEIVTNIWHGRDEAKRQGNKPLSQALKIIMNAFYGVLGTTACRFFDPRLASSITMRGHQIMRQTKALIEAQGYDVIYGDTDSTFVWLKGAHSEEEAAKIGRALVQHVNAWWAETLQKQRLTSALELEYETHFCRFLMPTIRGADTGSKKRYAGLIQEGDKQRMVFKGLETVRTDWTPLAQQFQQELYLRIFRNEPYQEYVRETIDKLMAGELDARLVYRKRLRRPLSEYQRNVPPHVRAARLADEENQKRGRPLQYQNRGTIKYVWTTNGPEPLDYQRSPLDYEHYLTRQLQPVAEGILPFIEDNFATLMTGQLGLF
Protocol: Control, non-damaged and ICL-containing DNA substrates were used to analyze replication from a −10 primer by pol II (FIG. 7A) and pol IV (FIGS. 7B and 7C). Using the non-damaged primer-template substrates pol II catalyzed a highly processive polymerization to yield full-length primer extension products. […] ICL bypass by pol II was not observed even when reactions were conducted with increased enzyme concentrations (up to a 1000-fold excess relative to DNA substrate).

E. coli DNA pol IV = E. coli DNA pol IV (Escherichia coli, UniProt Q47155); conditions: −10 primer, 30-minute reactions, 37° C.
Sequence of E. coli DNA pol IV (Q47155 whole entry): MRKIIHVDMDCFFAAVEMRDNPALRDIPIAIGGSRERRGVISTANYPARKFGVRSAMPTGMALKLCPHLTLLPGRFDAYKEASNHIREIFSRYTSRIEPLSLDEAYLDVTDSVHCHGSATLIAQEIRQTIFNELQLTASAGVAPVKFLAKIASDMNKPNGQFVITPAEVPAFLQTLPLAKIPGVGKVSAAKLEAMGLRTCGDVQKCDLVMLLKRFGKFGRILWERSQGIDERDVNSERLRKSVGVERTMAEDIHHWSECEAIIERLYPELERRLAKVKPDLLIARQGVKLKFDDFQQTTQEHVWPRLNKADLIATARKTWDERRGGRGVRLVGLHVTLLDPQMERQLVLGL
Protocol: The primer extension assays were conducted in a 10 μl reaction volume containing pol II or pol IV, 5 nM primer-template, 5 mM MgCl2, 100 μM dNTPs, 25 mM Tris-HCl (pH 7.5), 25 mM DTT, 0.5 mg/ml BSA and 10% glycerol. Reactions were carried out at 37° C. for 30 minutes followed by termination of the reaction with a solution containing 95% formamide, 10 mM EDTA and 0.03% (w/v) xylene cyanol and 0.03% (w/v) bromophenol blue. DNA replication products were separated through a 15% denaturing polyacrylamide gel at 2000 V and later analyzed on a Phosphor Imager (GE Healthcare).

Sequence of avidin (P02701 25-152, species assumed): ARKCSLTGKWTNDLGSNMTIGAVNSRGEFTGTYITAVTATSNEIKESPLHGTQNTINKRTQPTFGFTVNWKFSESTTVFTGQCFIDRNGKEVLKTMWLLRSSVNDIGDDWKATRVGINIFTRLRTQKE

Molecule	Ka of avidin-biotin complex (avidin)	Deletions (COS-7 cells)	Single base substitutions G to A (COS-7 cells)	Single base substitutions G to C (COS-7 cells)	Single base substitutions G to T (COS-7 cells)	Frequency of mutations (COS-7 cells) [%]	replication from −10 primer by pol II (E. coli DNA pol II)	replication by increasing concentrations of pol IV (E. coli DNA pol IV)
O=C(O)CCCC[C@@H]1SC[C@@H]2NC(=O)N[C@@H]21 [biotin]	10^15 M^−1	–	–	–	–	–	–	–
CpG ICL: SEQ ID NO: 1 and 2 joined by G-(CH2)3-G; model acrolein-derived N2-N2-guanine ICL in CpG context (chain 1 GCTAGCGAGTCC; chain 2 CCTGCAAGCGATGGACTCGCTAGCATCGCTGGTACC; listed as DNA, chemistry not fully specified)	–	0	0	0	2	3.0	–	–
GpC ICL: SEQ ID NO: 3 and 4 joined by G-(CH2)3-G; model acrolein-derived N2-N2-guanine ICL in GpC context (chain 1 GCTGAGCGATCC; chain 2 CCTGCAAGCGATGGATCGCTCAGCATCGCTGGTACC; listed as DNA, chemistry not fully specified)	–	5	4	1	1	3.2	–	–
ICL1: crosslinked oligodeoxynucleotide, SEQ ID NO: 5 and 6 joined by G-(CH2)3-G; models DNA product of dual incision around the ICL (chain 1 GATGCTANCYTGTC; chain 2 AGCGATAGACACYATAGCATCGCTGGTACCGACTCG; crosslinked oligodeoxynucleotide, G-(CH2)3-G interstrand crosslink, further chemistry not given here)	–	–	–	–	–	–	unable to carry out effective strand-displacement synthesis	very poor strand displacement synthesis
